Consider ten compounds from patent publication US8604061B2, “2-aminooxazolines as TAAR1 ligands” (Hoffmann-La Roche Inc., priority 2007, dated 2013).

One experiment deals with TAAR1. Description: TAAR1 radioligand binding, membranes of stably transfected HEK293 cells (mouse). The settings on record: TAAR1 binding assay, species not stated; read-out: calculated Kd value of the radioligand. The method, boiled down: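 Competition binding on membranes from HEK293 cells stably expressing the TAAR1 species ortholog, in HEPES-NaOH pH 7.0 with 10 mM MgCl2 and 2 mM CaCl2, 30 min at 4° C with [3H]-rac-2-(1,2,3,4-tetrahydro-1-naphthyl)-2-imidazoline. Competitors 10 pM–30 μM, duplicates; non-specific binding with 10 μM unlabelled ligand; filtration and scintillation counting.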
As for `c1ccc2c(c1)CCCC2C1=NCCN1` (racemic) [[^3H]-rac-2-(1,2,3,4-tetrahydro-1-naphthyl)-2-imidazoline, reference compound], the Kd (commonly the concentration at which binding is half-saturated) is 60 nM.

In another experiment the target is TAAR1 (Rattus norvegicus, UniProt Q923Y9). Put plainly: TAAR1 radioligand binding, membranes of stably transfected HEK293 cells (rat). The settings on record: cell marked 'rat'; radioligand [3H]-rac-2-(1,2,3,4-tetrahydro-1-naphthyl)-2-imidazoline, 4° C.; read-out: Ki (μM) mouse/rat. As to the method: For the construction of expression plasmids the coding sequences of human, rat and mouse TAAR 1 were amplified from genomic DNA essentially as described by Lindemann et al.. The Expand High Fidelity PCR System (Roche Diagnostics) was used with 1.5 mM Mg^2+ and purified PCR products were cloned into pCR2.1-TOPO cloning vector (Invitrogen) following the instructions of the manufacturer. PCR products were subcloned into the pIRESneo2 vector (BD Clontech, Palo Alto, Calif.), and expression vectors were sequence verified before introduction in cell lines.
HEK293 cells (ATCC #CRL-1573) were cultured essentially as described Lindemann et al. (2005). For the generation of stably transfected cell lines HEK293 cells were transfected with the pIRESneo2 expression plasmids containing the TAAR coding sequences (described above) with Lipofectamine 2000 (Invitrogen) according to the instructions of the manufacturer, and 24 hrs post transfection the culture medium was supplemented with 1 mg/ml G418 (Sigma, Buchs, Switzerland). After a culture period of about 10 d clones were isolated, expanded and tested for responsiveness to trace amines (all compounds purchased from Sigma) with the cAMP Biotrak Enzyme immunoassay (EIA) System (Amersham) following the non-acetylation EIA procedure provided by the manufacturer.
Cells at confluence were rinsed with ice-cold phosphate buffered saline without Ca^2+ and Mg^2+ containing 10 mM EDTA and pelleted by centrifugation at 1000 rpm for 5 min at 4° C. The pellet was then washed twice with ice-cold phosphate buffered saline and cell pellet was frozen immediately by immersion in liquid nitrogen and stored until use at −80° C. Cell pellet was then suspended in 20 ml HEPES-NaOH (20 mM), pH 7.4 containing 10 mM EDTA, and homogenized with a Polytron (PT 3000, Kinematica) at 10,000 rpm for 10 s. The homogenate was centrifuged at 48,000×g for 30 min at 4° C. and the pellet resuspended in 20 ml HEPES-NaOH (20 mM), pH 7.4 containing 0.1 mM EDTA (buffer A), and homogenized with a Polytron at 10,000 rpm for 10 s. The homogenate was then centrifuged at 48,000×g for 30 min at 4° C. and the pellet resuspended in 20 ml buffer A, and homogenized with a Polytron at 10,000 rpm for 10 s. Protein concentration was determined by the method of Pierce (Rockford, Ill.). The homogenate was then centrifuged at 48,000×g for 10 min at 4° C., resuspended in HEPES-NaOH (20 mM), pH 7.0 including MgCl2 (10 mM) and […] homogenized with a Polytron at 10,000 rpm for 10 s.
Binding assay was performed at 4° C. in a final volume of 1 ml, and with an incubation time of 30 min. […] Non-specific binding was defined as the amount of [^3H]-rac-2-(1,2,3,4-tetrahydro-1-naphthyl)-2-imidazoline bound in the presence of the appropriate unlabelled ligand (10 μM). Competing ligands were tested in a wide range of concentrations (10 pM-30 μM). […] Each experiment was performed in duplicate. All incubations were terminated by rapid filtration through UniFilter-96 plates (Packard Instrument Company) and glass filter GF/C, pre-soaked for at least 2 h in polyethylenimine 0.3%, and using a Filtermate 96 Cell Harvester (Packard Instrument Company). The tubes and filters were then washed 3 times with 1 ml aliquots of cold buffer B. Filters were not dried and soaked in Ultima gold (45 μl/well, Packard Instrument Company) and bound radioactivity was counted by a TopCount Microplate Scintillation Counter (Packard Instrument Company).
On to `NC1=N[C@@H](COc2ccc(Br)cc2)CO1` [Example 310, (S)-4-(4-Bromo-phenoxymethyl)-4,5-dihydro-oxazol-2-ylamine], for which the Ki is 0.009 µM.

As for `CC1(c2cccc(Cl)c2F)COC(N)=N1` (racemic) [Example 311, (RS)-4-(3-Chloro-2-fluoro-phenyl)-4-methyl-4,5-dihydro-oxazol-2-ylamine], the Ki is 0.0042 µM. For `CCC(C[C@H]1COC(N)=N1)c1cccc(Cl)c1` (stereo partly drawn) [Example 287, (S)-4-[2-(3-Chloro-phenyl)-butyl]-4,5-dihydro-oxazol-2-ylamine], the Ki is 0.0027 µM. On the same count and under the same terms, for `NC1=N[C@@H](c2ccc(Br)c(F)c2)CO1` [Example 321, (+)-(S)-4-(4-Bromo-3-fluoro-phenyl)-4,5-dihydro-oxazol-2-ylamine] the value was 0.0014 µM.

Take `Cc1cc([C@@]2(C)COC(N)=N2)ccc1Cl` [Example 281, (S)-4-(4-Chloro-3-methyl-phenyl)-4-methyl-4,5-dihydro-oxazol-2-ylamine]: the Ki was determined as 0.0019 µM.

Consider `Cc1ccc(Cl)cc1[C@H]1COC(N)=N1` [Example 314, (+)-(S)-4-(5-Chloro-2-methyl-phenyl)-4,5-dihydro-oxazol-2-ylamine], for which the Ki turned out to be 0.003 µM. Same read-out and setting: then `NC1=N[C@@H](COc2cc(Cl)cc(Cl)c2)CO1` [Example 285, (S)-4-(3,5-Dichloro-phenoxymethyl)-4,5-dihydro-oxazol-2-ylamine], with 0.0045 µM; and `CC[C@]1(c2ccc(Cl)cc2)COC(N)=N1` [Example 313, (S)-4-(4-Chloro-phenyl)-4-ethyl-4,5-dihydro-oxazol-2-ylamine], with 0.005 µM; and `NC1=N[C@@H](CCc2ccccc2Br)CO1` [Example 322, (S)-4-[2-(2-Bromo-phenyl)-ethyl]-4,5-dihydro-oxazol-2-ylamine], with 0.002 µM.
